According to ChEMBL document CHEMBL5321287, “Discovery, Synthesis, and Evaluation of Novel Dual Inhibitors of a Vascular Endothelial Growth Factor Receptor and Poly(ADP-Ribose) Polymerase for BRCA Wild-Type Breast Cancer Therapy” (J Med Chem, 2023):
Calls of active or inactive are those of the source. No cut-off for these calls is given here.

Legend:
[1] = biological target: Vascular endothelial growth factor receptor 2 (Homo sapiens, UniProt P35968); test: Inhibition of VEGFR2 (unknown origin) by Z'-Lyte kinase assay
Vascular endothelial growth factor receptor 2, sequence (P35968 whole entry): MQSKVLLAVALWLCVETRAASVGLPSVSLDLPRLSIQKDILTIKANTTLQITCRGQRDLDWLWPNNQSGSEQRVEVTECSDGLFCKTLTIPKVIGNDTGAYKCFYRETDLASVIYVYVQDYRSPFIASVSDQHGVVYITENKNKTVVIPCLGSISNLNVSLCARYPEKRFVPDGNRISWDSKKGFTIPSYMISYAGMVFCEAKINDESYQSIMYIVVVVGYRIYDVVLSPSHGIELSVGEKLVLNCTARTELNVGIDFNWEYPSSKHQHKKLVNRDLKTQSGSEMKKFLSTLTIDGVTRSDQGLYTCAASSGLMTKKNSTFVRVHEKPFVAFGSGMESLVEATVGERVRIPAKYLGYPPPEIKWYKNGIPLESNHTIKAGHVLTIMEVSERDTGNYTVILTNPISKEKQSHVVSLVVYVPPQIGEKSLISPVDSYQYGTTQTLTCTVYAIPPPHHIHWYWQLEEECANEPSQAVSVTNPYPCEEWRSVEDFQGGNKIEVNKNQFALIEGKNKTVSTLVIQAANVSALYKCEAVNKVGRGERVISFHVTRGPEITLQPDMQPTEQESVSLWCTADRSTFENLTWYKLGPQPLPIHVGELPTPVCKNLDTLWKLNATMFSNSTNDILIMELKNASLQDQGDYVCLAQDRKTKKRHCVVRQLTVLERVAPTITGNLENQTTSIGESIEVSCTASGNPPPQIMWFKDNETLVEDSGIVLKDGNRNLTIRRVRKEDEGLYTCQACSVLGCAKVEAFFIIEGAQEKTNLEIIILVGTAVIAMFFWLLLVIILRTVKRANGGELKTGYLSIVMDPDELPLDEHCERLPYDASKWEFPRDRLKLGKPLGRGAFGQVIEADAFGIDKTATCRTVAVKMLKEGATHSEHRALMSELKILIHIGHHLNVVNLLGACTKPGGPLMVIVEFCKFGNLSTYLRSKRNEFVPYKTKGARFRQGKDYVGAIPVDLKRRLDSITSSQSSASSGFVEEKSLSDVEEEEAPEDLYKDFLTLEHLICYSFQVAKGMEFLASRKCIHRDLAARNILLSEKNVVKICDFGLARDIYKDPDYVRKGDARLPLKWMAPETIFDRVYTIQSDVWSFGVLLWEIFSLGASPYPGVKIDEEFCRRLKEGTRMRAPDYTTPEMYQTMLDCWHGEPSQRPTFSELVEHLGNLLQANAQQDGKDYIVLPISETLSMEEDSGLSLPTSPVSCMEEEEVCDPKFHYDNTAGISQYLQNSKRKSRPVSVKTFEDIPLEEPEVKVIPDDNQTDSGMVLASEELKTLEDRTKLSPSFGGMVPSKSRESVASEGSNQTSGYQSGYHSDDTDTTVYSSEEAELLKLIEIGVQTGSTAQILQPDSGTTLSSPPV

[2] = test system: MCF7; test: Antiproliferative activity against human MCF7 cells assessed as cell growth inhibition
[3] = biological target: T1, Poly [ADP-ribose] polymerase 1 (Homo sapiens, UniProt P09874); test: Inhibition of PARP1 (unknown origin)
T1 sequence (P09874 whole entry): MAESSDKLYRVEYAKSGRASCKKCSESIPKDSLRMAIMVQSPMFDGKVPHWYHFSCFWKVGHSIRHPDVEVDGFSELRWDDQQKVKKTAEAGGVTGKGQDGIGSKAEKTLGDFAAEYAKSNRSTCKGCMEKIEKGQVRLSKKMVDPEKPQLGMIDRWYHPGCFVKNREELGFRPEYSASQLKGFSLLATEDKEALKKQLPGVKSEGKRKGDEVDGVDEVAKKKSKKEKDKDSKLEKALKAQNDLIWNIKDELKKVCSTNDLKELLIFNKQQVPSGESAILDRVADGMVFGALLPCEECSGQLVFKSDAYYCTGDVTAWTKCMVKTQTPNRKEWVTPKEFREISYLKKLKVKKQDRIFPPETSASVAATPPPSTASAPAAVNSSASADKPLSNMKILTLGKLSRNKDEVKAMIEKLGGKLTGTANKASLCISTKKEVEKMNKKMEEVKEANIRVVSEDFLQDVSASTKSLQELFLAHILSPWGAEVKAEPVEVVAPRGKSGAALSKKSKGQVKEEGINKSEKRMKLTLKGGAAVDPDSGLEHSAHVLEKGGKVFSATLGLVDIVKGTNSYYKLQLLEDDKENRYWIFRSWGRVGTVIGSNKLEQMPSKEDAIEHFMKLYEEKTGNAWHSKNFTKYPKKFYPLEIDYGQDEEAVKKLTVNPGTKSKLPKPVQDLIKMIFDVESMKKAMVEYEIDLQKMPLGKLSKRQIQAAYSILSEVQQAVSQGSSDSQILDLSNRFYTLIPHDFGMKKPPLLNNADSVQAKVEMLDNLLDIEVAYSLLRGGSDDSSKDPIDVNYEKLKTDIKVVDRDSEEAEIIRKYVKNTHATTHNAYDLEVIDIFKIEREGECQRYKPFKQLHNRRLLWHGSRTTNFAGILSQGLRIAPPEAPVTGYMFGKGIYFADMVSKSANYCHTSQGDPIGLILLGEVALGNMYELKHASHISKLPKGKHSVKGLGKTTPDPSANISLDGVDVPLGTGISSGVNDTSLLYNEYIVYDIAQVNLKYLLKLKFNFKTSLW

[4] = test system: MDA-MB-231; test: Antiproliferative activity against human MDA-MB-231 cells assessed as cell growth inhibition
[5] = biological target: T1, Poly [ADP-ribose] polymerase 1; settings: MDA-MB-231, dose 50.0 mg/kg, route po, time 14.0 day
[6] = test system: MDA-MB-436; test: cells; settings: Homo sapiens
[7] = test system: HCC1937; test: cells; settings: Homo sapiens
[8] = test system: HCC1937; test: Antiproliferative activity against human HCC1937 cells assessed as cell growth inhibition
[9] = test system: MDA-MB-436; test: Antiproliferative activity against human MDA-MB-436 cells assessed as cell growth inhibition
[10] = test system: HUVEC; test: cells; settings: Homo sapiens, 48 h
[11] = test system: MDA-MB-231; test: cells; settings: Homo sapiens
[12] = test system: MCF7; test: cells; settings: Homo sapiens

Structure (SMILES) | IC50 [1] [nM] | IC50 [2] [nM] | IC50 [3] [nM] | IC50 [4] [nM] | other results
CN(c1ccc(Cl)cc1)c1ccnc(Nc2ccc(-c3nc4cc(F)c(F)cc4[nH]3)cc2)n1 | 427 | > 10000 | 661 | > 10000 | –
CC(C)c1ccc(N(C)c2ccnc(Nc3ccc(-c4nc5cc(F)c(F)cc5[nH]4)cc3)n2)cc1 | 501 | – | – | – | –
Cc1c2ccc(N(C)c3ccnc(Nc4ccc(-c5nc6ccccc6[nH]5)c(C(F)(F)F)c4)n3)cc2nn1C | 213 | > 10000 | > 10000 | > 10000 | –
CN(c1ccc(Cl)cc1)c1ccnc(Nc2ccc(C(=O)Nc3nc4c(C(N)=O)cccc4[nH]3)cc2)n1 | – | – | 137 | – | –
Cc1c2ccc(N(C)c3nc(Nc4ccc(-c5nc6c(C(N)=O)cccc6[nH]5)cc4)nc4ccsc34)cc2nn1C | > 10000 | – | – | – | –
NC(=O)c1cccc2[nH]c(-c3ccc(Nc4nccc(N5CCN(c6ccc(C(F)(F)F)cn6)CC5)n4)cc3)nc12 | – | – | 98.2 | – | –
Cc1c2ccc(N(C)c3cc(C(F)(F)F)nc(Nc4ccc(C(=O)Nc5nc6c(C(N)=O)cccc6[nH]5)cc4)n3)cc2nn1C | > 10000 | – | – | – | –
Cc1c2ccc(N(C)c3ccnc(Nc4ccc(C(=O)Nc5nc6c(C(N)=O)cccc6[nH]5)c(Cl)c4)n3)cc2nn1C | – | – | 166 | – | –
Cc1c2ccc(N(C)c3ccnc(Nc4ccc(-c5nc6c(C(N)=O)cccc6[nH]5)c(Cl)c4)n3)cc2nn1C | – | – | 142 | – | –
Cc1c2ccc(N(C)c3ccnc(Nc4ccc(-c5nc6cc(F)c(F)cc6[nH]5)c(Cl)c4)n3)cc2nn1C | – | – | 759 | – | –
Cc1ccc(Nc2nccc(N(C)c3ccc4c(C)n(C)nc4c3)n2)cc1-c1nc2cc(F)c(F)cc2[nH]1 | – | – | 682 | – | –
Cc1ccc(Nc2nccc(N(C)c3ccc4c(C)n(C)nc4c3)n2)cc1-c1nc2ccccc2[nH]1 | 171 | – | – | – | –
CN(c1ccc(F)cc1)c1ccnc(Nc2ccc(-c3nc4c(C(N)=O)cccc4[nH]3)cc2)n1 | – | – | 130 | – | –
CN(c1ccc(N2CCOCC2)c(F)c1)c1ccnc(Nc2ccc(C(=O)Nc3nc4ccccc4[nH]3)cc2)n1 | 728 | > 10000 | > 10000 | > 10000 | –
Cc1c2ccc(N(C)c3ccnc(Nc4ccc(-c5nc6cc(F)c(F)cc6[nH]5)c(C(F)(F)F)c4)n3)cc2nn1C | – | – | 673 | – | –
Cc1c2ccc(N(C)c3ccnc(Nc4ccc(C(=O)Nc5nc6c(C(N)=O)cccc6[nH]5)c(C(F)(F)F)c4)n3)cc2nn1C | – | – | 345 | – | –
O=C(c1cc(Cc2n[nH]c(=O)c3ccccc23)ccc1F)N1CCN(C(=O)C2CC2)CC1 [OLAPARIB] | – | > 10000 | – | > 10000 | inhibition [5]: Active; IC50 [6]: > 10000 nM; IC50 [7]: > 10000 nM; IC50 [8]: 6510 nM; IC50 [9]: 9000 nM; IC50 [10]: 4600 nM; IC50 [11]: > 10000 nM; IC50 [12]: > 10000 nM
Cc1c2ccc(N(C)c3ccnc(Nc4ccc(-c5ccc(-c6nc7c(C(N)=O)cccc7[nH]6)cc5)cc4)n3)cc2nn1C | 308 | > 10000 | 469 | > 10000 | –
Cc1c2ccc(N(C)c3ccnc(Nc4ccc(-c5nc6ccccc6[nH]5)c(Cl)c4)n3)cc2nn1C | 188 | > 10000 | > 10000 | > 10000 | –
Cc1c2ccc(N(C)c3ccnc(Nc4ccc(-c5nc6c(C(N)=O)cccc6[nH]5)cc4F)n3)cc2nn1C | 254 | > 10000 | 118 | 9340 | –
Cc1c2ccc(N(C)c3ccnc(Nc4ccc(C(=O)Nc5nc6c(C(N)=O)cccc6[nH]5)cc4)n3)cc2nn1C | 260 | – | – | – | –
NC(=O)c1cccc2[nH]c(NC(=O)c3ccc(Nc4nccc(N5CCN(C(=O)c6ccccc6)CC5)n4)cc3)nc12 | – | – | 194 | – | –

Structure (SMILES) | IC50 [1] [nM] | IC50 [2] [nM] | IC50 [3] [nM] | IC50 [4] [nM] | other results
COc1cc(Nc2nccc(N(C)c3ccc4c(C)n(C)nc4c3)n2)ccc1-c1nc2c(C(N)=O)cccc2[nH]1 | 169 | – | – | – | –
Cc1c2ccc(N(C)c3ccnc(Nc4cccc(-c5nc6cc(F)c(F)cc6[nH]5)c4)n3)cc2nn1C | 190 | 7200 | 647 | 2300 | –
COc1ccc(-c2nc3cc(F)c(F)cc3[nH]2)cc1Nc1nccc(N(C)c2ccc3c(C)n(C)nc3c2)n1 | 200 | – | – | – | –
Cc1cc(Nc2nccc(N(C)c3ccc4c(C)n(C)nc4c3)n2)cnc1-c1nc2c(C(N)=O)cccc2[nH]1 | 235 | > 10000 | 150 | 8910 | –
Cc1c2ccc(N(C)c3ccnc(Nc4ccc(-c5nc6c(C(N)=O)cccc6[nH]5)c(C(F)(F)F)c4)n3)cc2nn1C | 267 | > 10000 | 164 | – | –
CN(c1ccnc(Nc2ccc(-c3nc4c(C(N)=O)cccc4[nH]3)cc2)n1)c1cc(C(C)(C)C)n(C)n1 | > 10000 | – | – | – | –
Cc1cnc(Nc2ccc(-c3nc4c(C(N)=O)cccc4[nH]3)cc2)nc1N(C)c1ccc2c(C)n(C)nc2c1 | > 10000 | – | – | – | –
CN(c1ccc(N2CCOCC2)cc1)c1ccnc(Nc2ccc(-c3nc4c(C(N)=O)cccc4[nH]3)cc2)n1 | > 10000 | 8930 | 87 | 9720 | –
CS(=O)(=O)N1CCN(c2ccnc(Nc3ccc(-c4nc5c(C(N)=O)cccc5[nH]4)cc3)n2)CC1 | > 10000 | – | – | – | –
Cc1c2ccc(N(C)c3ccnc(Nc4cc(F)c(-c5nc6c(C(N)=O)cccc6[nH]5)c(F)c4)n3)cc2nn1C | – | – | 342 | – | –
COc1cc(N(C)c2ccc3c(C)n(C)nc3c2)nc(Nc2ccc(-c3nc4c(C(N)=O)cccc4[nH]3)cc2)n1 | > 10000 | > 10000 | 79.6 | > 10000 | –
COc1cc(Nc2nccc(N(C)c3ccc4c(C)n(C)nc4c3)n2)ccc1-c1nc2cc(F)c(F)cc2[nH]1 | 165 | – | – | – | –
CN(c1ccc2ncccc2c1)c1ccnc(Nc2ccc(-c3nc4c(C(N)=O)cccc4[nH]3)cc2)n1 | 659 | – | – | – | –
Cc1cc(N(C)c2ccc3c(C)n(C)nc3c2)nc(Nc2ccc(-c3nc4c(C(N)=O)cccc4[nH]3)cc2)n1 | > 10000 | > 10000 | 85.2 | > 10000 | –
Cc1c2ccc(N(C)c3ccnc(Nc4cccc(-c5nc6c(C(N)=O)cccc6[nH]5)c4)n3)cc2nn1C | – | – | 82.7 | – | –
NC(=O)c1cccc2[nH]c(-c3ccc(Nc4nccc(N5CCN(C(=O)c6ccccc6)CC5)n4)cc3)nc12 | > 10000 | > 10000 | 128 | > 10000 | –
CC(C)c1ccc(N(C)c2ccnc(Nc3ccc(-c4nc5c(C(N)=O)cccc5[nH]4)cc3)n2)cc1 | – | – | 89.7 | – | –
CN(c1ccc(S(C)(=O)=O)cc1)c1ccnc(Nc2ccc(-c3nc4c(C(N)=O)cccc4[nH]3)cc2)n1 | > 10000 | – | – | – | –
COc1ccc(-c2nc3c(C(N)=O)cccc3[nH]2)cc1Nc1nccc(N(C)c2ccc3c(C)n(C)nc3c2)n1 | 266 | > 10000 | 39.4 | > 10000 | –
Cc1c2ccc(N(C)c3ccnc(Nc4ccc(-c5nc6c(C(N)=O)cccc6[nH]5)cc4)n3)cc2nn1C | – | – | 95.7 | – | –
CN1CCN(C2CCN(c3ccnc(Nc4ccc(-c5nc6c(C(N)=O)cccc6[nH]5)cc4)n3)CC2)CC1 | > 10000 | – | – | – | –
